Assay results published in patent US20150031102A1, “METHODS AND COMPOSITIONS FOR ENHANCED PRODUCTION OF BUTANOL BY CLOSTRIDIA” (Butrolix LLC, priority 2012, published 2015).

How the values were obtained:
[1] = test system: C. beijerinckii NCIMB 8052; test: Sequential batch cultures of C. beijerinckii NCIMB 8052 grown at 30° C. in YEPG (growth OD600, final pH, ceric ion reactive compounds); format: cell-based, Clostridium beijerinckii
Experimental: (§1) Clostridium acetobutylicum ATCC 824 and C. beijerinckii NCIMB 8052 are available from several commercial microbial culture collections including the American Type Culture Collection (ATCC), Manassas, Va., USA. The strain grown at 30 C or 37 C in YE broth, which contained, per liter: 5.0 g yeast extract, 2.5 g casamino acids, 1.0 g L-asparagine, 0.5 g cysteine·HCl, 56 mg K2HPO4, 56 mg KH2PO4, 82 mg anhydrous MgSO4, 8 mg FeSO4.H2O, 6 mg MnSO4.H2O and 10 g glucose. Alternatively, strains were grown in YEPG broth, which was identical to YE expect that K2HPO4 and KH2PO4 were increased to 145 mg/L each and glucose was increased to 60 g/L. The pH of the media was adjusted to 7.2 using 45% KOH prior to sterilization by autoclaving. Media were solidified by addition of 1.5% Bacteriological Agar, Acumedia Manufacturers, Inc., Lansing, Mich. All cultures were grown in anaerobic conditions using the AnaeroPack System, Mitsubishi Gas Chemical Co., Inc., Japan, and GasPak EZ Gas Generating Sachets, Becton, Dickinson and Co., Sparks, Md. Spore stocks were kept at room temperature on agar-solidified media and were activated by suspending spores in 0.5 mL to 1.0 mL of medium followed by heating for 10 min at 80 C before inoculation into growth medium.
(§2) Growth of bacterial cultures was measured spectrophotometrically using optical density at 600 nm and pH of cell-free culture supernatants was measured using a hand-held Shindengen ISFET pH Meter KS501, Shendengen Electric Manufacturing Co., Ltd., Bannockburn, Ill.
(§3) Total alcohols in cell-free culture supernatants were measured using a modification of a colorimetric method based on ceric ammonium nitrate (Reid and Truelove, 1952). The ceric ion reagent was prepared by adding 1.3 mL of concentrated nitric acid to 40 mL of distilled water, then 10.96 g of ceric ammonium nitrate was dissolved in the dilute nitric acid solution and the solution was brought to a final volume of 50 mL. For the assay, […] of butanol standard or culture supernatant was mixed with […] distilled water in a disposable plastic cuvette followed by addition of […] of the ceric ion reagent. The sample was mixed by inverting the cuvette six times then exactly two minutes later the optical density at 500 nm wavelength was measured. The concentration of total alcohols was determined by comparison with a standard curve prepared by using butanol diluted in distilled water.
Spores of C. beijerinckii NCIMB 8052 were germinated and grown overnight at 30 C under anaerobic conditions in YEPG medium. After about 24 h of growth, […] of the culture was transferred (transfer 1) to each of four flasks that contained 10 mL of YEPG and either had no treatment or were treated with peptide SEQ ID NO: 145 (see Table 8) at 1 nM, 10 nM or 50 nM. Thereafter, […] of each culture was transferred, at the same time, every 24-48 h to 10 mL of fresh YEPG that contained the same peptide treatment or no treatment. Each culture was stopped after 96 hours of incubation and optical density, pH and ceric ion reactive chemicals were measured. Sequential batch culturing was continued through 6 transfers at which point all cultures appeared to be growing to the same extent (Table 12 and FIG. 4).

[2] = test system: C. beijerinckii NCIMB 8052; test: Germination and sequential batch cultures of C. beijerinckii NCIMB 8052 grown at 37° C. (growth OD600, final pH, ceric ion reactive compounds); format: cell-based, Clostridium beijerinckii
Experimental: as §1, §2, §3
Spores of C. beijerinckii NCIMB 8052 were germinated and grown overnight at 37 C under anaerobic conditions in YEPG medium that either contained 50 nM of peptide SEQ ID NO: 145 or no added peptide. After about 24 h of growth, […] of the untreated culture was transferred (transfer 1) to each of two flasks that contained 10 mL of YEPG with either no treatment or with 50 nM peptide SEQ ID NO: 145. At the same time, 10 μL of the culture that was germinated in the presence of peptide SEQ ID NO: 145 was also transferred to 10 mL of YEPG that contained 50 nM of peptide SEQ ID NO: 145. Thereafter, […] of each culture was transferred, at the same time, every 24-48 h to 10 mL of fresh YEPG that contained the same peptide treatment or no treatment. Each culture was stopped after 72 hours of incubation and optical density, pH and ceric ion reactive chemicals were measured. Addition of peptide SEQ ID NO: 145 appeared to have no effect on endpoint measurements of the growth of C. beijerinckii NCIMB 8052 after germination or during sequential transfers of cultures at 37° C. (Table 18 and FIG. 10). All three cultures stopped growing at the second transfer. Likewise, there was no apparent effect on endpoint measurements of pH or ceric ion reactive compounds (Tables 19 and 20 and FIGS. 11 and 12).

[3] = 10 nM, transfer 1, 96 h culture
[4] = 10 nM, transfer 2, 96 h culture
[5] = 10 nM, transfer 3, 96 h culture
[6] = 10 nM, transfer 4, 96 h culture
[7] = 10 nM, transfer 5, 96 h culture
[8] = 10 nM, transfer 6, 96 h culture
[9] = 50 nM, transfer 1, 96 h culture
[10] = 50 nM, transfer 2, 96 h culture
[11] = 50 nM, transfer 3, 96 h culture
[12] = 50 nM, transfer 4, 96 h culture
[13] = 50 nM, transfer 5, 96 h culture
[14] = 50 nM, transfer 6, 96 h culture
[15] = 50 nM added after germination, transfer 1, 72 h culture
[16] = 50 nM added after germination, transfer 2, 72 h culture
[17] = 50-50 (germinated and transferred in 50 nM), transfer 1, 72 h culture
[18] = 50-50 (germinated and transferred in 50 nM), transfer 2, 72 h culture
[19] = 50-50 (spores germinated in 50 nM peptide), transfer 0 (germinated culture), 72 h culture

## IRLIT (Derived from Clostridium beijerinckii SEQ ID NO: 141) [peptide SEQ ID NO: 145]
[1]
  Culture degeneration in terms of production of total alcohols: transiently increase culture degeneration
[1]; 1 nM, transfer 1, 96 h culture
  Final pH: 5.3
  Optical density at 600 nm: 2.086
  Optical density of ceric ion reactive compounds measured at 500 nm: 0.065
[1]; 1 nM, transfer 2, 96 h culture
  Final pH: 5.3
  Optical density at 600 nm: 2.086
  Optical density of ceric ion reactive compounds measured at 500 nm: 0.032
[1]; 1 nM, transfer 3, 96 h culture
  Final pH: 5.1
  Optical density at 600 nm: 2.106
  Optical density of ceric ion reactive compounds measured at 500 nm: 0.054
[1]; 1 nM, transfer 4, 96 h culture
  Final pH: 5.3
  Optical density at 600 nm: 2.115
  Optical density of ceric ion reactive compounds measured at 500 nm: 0.041
[1]; 1 nM, transfer 5, 96 h culture
  Final pH: 5.3
  Optical density at 600 nm: 2.090
  Optical density of ceric ion reactive compounds measured at 500 nm: 0.061
[1]; 1 nM, transfer 6, 96 h culture
  Final pH: 5.3
  Optical density at 600 nm: 2.075
  Optical density of ceric ion reactive compounds measured at 500 nm: 0.062
[1]; [3]
  Final pH: 5.3
  Optical density at 600 nm: 2.080
  Optical density of ceric ion reactive compounds measured at 500 nm: 0.050
[1]; [4]
  Final pH: 5.3
  Optical density at 600 nm: 2.093
  Optical density of ceric ion reactive compounds measured at 500 nm: 0.008
[1]; [5]
  Final pH: 5.0
  Optical density at 600 nm: 2.078
  Optical density of ceric ion reactive compounds measured at 500 nm: 0.025
[1]; [6]
  Final pH: 5.3
  Optical density at 600 nm: 2.108
  Optical density of ceric ion reactive compounds measured at 500 nm: 0.047
[1]; [7]
  Final pH: 5.4
  Optical density at 600 nm: 2.069
  Optical density of ceric ion reactive compounds measured at 500 nm: 0.065
[1]; [8]
  Final pH: 5.3
  Optical density at 600 nm: 2.062
  Optical density of ceric ion reactive compounds measured at 500 nm: 0.055
[1]; [9]
  Final pH: 5.4
  Optical density at 600 nm: 2.102
  Optical density of ceric ion reactive compounds measured at 500 nm: 0.060
[1]; [10]
  Final pH: 5.3
  Optical density at 600 nm: 2.023
  Optical density of ceric ion reactive compounds measured at 500 nm: 0.023
[1]; [11]
  Final pH: 5.2
  Optical density at 600 nm: 1.936
[1]; [12]
  Final pH: 5.3
  Optical density at 600 nm: 2.061
  Optical density of ceric ion reactive compounds measured at 500 nm: 0.039
[1]; [13]
  Final pH: 5.3
  Optical density at 600 nm: 2.120
  Optical density of ceric ion reactive compounds measured at 500 nm: 0.051
[1]; [14]
  Final pH: 5.3
  Optical density at 600 nm: 2.046
  Optical density of ceric ion reactive compounds measured at 500 nm: 0.059
[1]; 1, 10, 50 nM, dose dependent manner, data not shown
  Growth of treated cultures during 96 h of incubation: slow the growth
[1]; all cultures (0, 1, 10, 50 nM), after the third transfer
  Final pH: ~5.3
[1]; through six culture transfers, in comparison with an untreated culture
  Number of times that cultures could be transferred: did not affect
[2]; 50 nM
  Effect on germination and growth (visual observations through the course of growth): repressive effect on germination and growth
[2]; [15]
  Final pH: 4.1
  Optical density at 600 nm: 1.313
  Optical density of ceric ion reactive compounds measured at 500 nm: −0.026
[2]; [16]
  Final pH: 6.5
  Optical density at 600 nm: 0.011
  Optical density of ceric ion reactive compounds measured at 500 nm: 0.006
[2]; 50 nM, after germination or during sequential transfers
  Effect on endpoint measurements of growth: no effect
[2]; [17]
  Final pH: 4.1
  Optical density at 600 nm: 1.420
  Optical density of ceric ion reactive compounds measured at 500 nm: −0.038
[2]; [18]
  Final pH: 6.6
  Optical density at 600 nm: 0.011
  Optical density of ceric ion reactive compounds measured at 500 nm: 0.002
[2]; [19]
  Final pH: 4.1
  Optical density at 600 nm: 1.158
  Optical density of ceric ion reactive compounds measured at 500 nm: −0.017
